In US9770026B2, “Substituted pyrimidine compound and uses thereof” (Shenyang Sinochem Agrochemicals R&D Co., Ltd., priority 2012, dated 2017):

Columns and labels:
Diamond back moth = test: insecticidal activity against diamond back moth, airbrush spray; assay type: in vivo
Procedure, shortened: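 Airbrush leaf-disc spray test: both faces of 2 cm cabbage discs received 0.5 ml of test solution at 0.7 kg/cm^2. Solutions were made in acetone:methanol (1:1) and brought to concentration with 0.1% Tween 80 in water. Ten second-instar larvae per disc, triplicates, were held at 25° C and 60˜70% R.H., with mortality recorded at 72 hrs.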

armyworm = test: bioactivity test against armyworm, airbrush spray; assay type: in vivo; details: for pest or weed control at 600 µg/mL: 600 mg/L; for pest or weed control at 600 µg/mL / pest or weed control at 10 µg/mL / pest or weed control at 100 µg/mL: read-out: Insecticidal activity against armyworm (%); for pest or weed control at 10 µg/mL: 10 mg/L; for pest or weed control at 100 µg/mL: 100 mg/L
[1] = system: Green peach aphids (Myzus Persicae Sulzer); test: bioactivity test against green peach aphid, airbrush foliar spray; assay type: in vivo
Procedure, shortened: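 Aphids (15-30 per cabbage leaf disc) on moist filter paper were airbrush-sprayed at 10 psi, 0.5 mL, with compound from acetone:methanol (1:1) diluted in water with 0.1% tween 80. Held at 25±1 C, 60±5% RH; survivors counted after 48 hrs to give death rates.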

carmine spider mite = test: bioactivity test against carmine spider mite, airbrush spray; assay type: in vivo
Procedure, shortened: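 Broadbean seedlings infested with adult mites were sprayed with compound (acetone/methanol stock diluted in 0.1% Tween 80 water) by airbrush at 0.7 kg/cm^2, 0.5 ml. Three replicates were run. Mortality was scored after 72 hrs.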

corn rust = test: protectant activity in vivo against corn rust
wheat powdery mildew = test: protectant activity in vivo against wheat powdery mildew; details: for pest or weed control at 400 µg/mL: read-out: control effect against wheat powdery mildew (%), 400 mg/L
cucumber downy mildew = test: protectant activity in vivo against cucumber downy mildew; details: Cucumis sativus, 168 h, read-out: control effect against cucumber downy mildew (%), 400 mg/L; protectant activity
[2] = Tetranychus cinnabarinus, 72 h, 600 mg/L, contrastive test, read-out: Insecticidal activity against carmine spider mite (% )
[3] = Triticum aestivum, 168 h, protectant activity
[4] = 100 ppm, mortality after 72 hrs
[5] = 600 ppm, mortality after 72 hrs
[6] = 10 ppm, death rate after 48 hrs
[7] = 100 ppm, death rate after 48 hrs
[8] = 600 ppm, death rate after 48 hrs

Row | Compound | pest or weed control at 600 µg/mL (armyworm; 72 h) [%] | pest or weed control at 600 µg/mL (carmine spider mite; [2]) [%] | pest or weed control at 400 µg/mL (wheat powdery mildew; [3]) [%] | control (test results against diamond back moth) (Diamond back moth; [4]) [%] | control (test results against diamond back moth) (Diamond back moth; [5]) [%] | control (test results against armyworm) (armyworm; 600 ppm, mortality after 72 h) [%] | pest or weed control at 10 µg/mL (armyworm; 72 h) [%] | pest or weed control at 100 µg/mL (armyworm; 72 h) [%] | Insecticidal activity against peach aphid (%) ([1]; 1.25 mg/L, contrastive test) | Insecticidal activity against peach aphid (%) ([1]; 2.5 mg/L, contrastive test) | Insecticidal activity against peach aphid (%) ([1]; 10 mg/L, contrastive test) | Insecticidal activity against peach aphid (%) ([1]; 100 mg/L, contrastive test) | Insecticidal activity against peach aphid (%) ([1]; 600 mg/L, contrastive test) | control (test results against green peach aphid) [1, 6] [%] | control (test results against green peach aphid) [1, 7] [%] | control (test results against green peach aphid) [1, 8] [%] | control against carmine spider mite (carmine spider mite; [4]) [%] | control against carmine spider mite (carmine spider mite; [5]) [%] | protectant activity against corn rust in vivo (corn rust; 400 ppm) [%] | protectant activity against wheat powdery mildew in vivo (wheat powdery mildew; 400 ppm) [%] | also measured
1 | Cc1ncnc(NCc2ccc(Oc3c(Cl)cc([N+](=O)[O-])cc3Cl)cc2)c1Cl [CK65, reference compound] | 0 | 0 | 0 | – | – | – | – | – | – | – | – | – | – | – | – | – | – | – | – | – | pest or weed control at 10 µg/mL (Diamond back moth; 72 h, 10 mg/L): 5%; pest or weed control at 100 µg/mL (Diamond back moth; 72 h, 100 mg/L): 35%; pest or weed control at 600 µg/mL (Diamond back moth; 72 h, 600 mg/L): 86%; pest or weed control at 600 µg/mL ([1]; Myzus persicae, foliar, 48 h, 600 mg/L, contrastive test, read-out: Insecticidal activity against peach aphid (%)): 0%; pest or weed control at 400 µg/mL (corn rust; Zea mays, 168 h, read-out: control effect against corn rust (%), 400 mg/L, protectant activity): 0%; pest or weed control at 400 µg/mL (cucumber downy mildew): 0%
2 | CCc1ncnc(NCCc2ccc(Oc3ccc(C(F)(F)F)cn3)cc2)c1Cl [Compound I-6757] | 100 | 100 | – | 100 | 100 | 100 | 28 | 100 | 100 | 100 | 100 | 100 | 100 | 100 | 100 | 100 | 100 | 100 | 100 | 100 | control (test results against armyworm) (armyworm; 100 ppm, mortality after 72 h): 100%; Insecticidal activity against peach aphid (%) ([1]; 5 mg/L, contrastive test): 100%; control (test results against green peach aphid) ([1]; 2.5 ppm, death rate after 48 hrs): 100%; pest or weed control at 5 ppm ([1]; Myzus persicae, foliar, 48 h, 5 ppm, death rate after 48 hrs): 100%; Insecticidal activity against carmine spider mite (% ) (carmine spider mite; 2.5 mg/L): 75%; Insecticidal activity against carmine spider mite (% ) (carmine spider mite; 5 mg/L): 80%; pest or weed control at 10 µg/mL (carmine spider mite; Tetranychus cinnabarinus, 72 h, 10 mg/L, contrastive test, read-out: Insecticidal activity against carmine spider mite (% )): 97%; pest or weed control at 100 µg/mL (carmine spider mite; Tetranychus cinnabarinus, 72 h, 100 mg/L, contrastive test, read-out: Insecticidal activity against carmine spider mite (% )): 100%; protectant activity against corn rust in vivo (corn rust; 100 ppm): 100%; protectant activity against wheat powdery mildew in vivo (wheat powdery mildew; 100 ppm): 100%
3 | Cc1ncnc(NCCc2ccc(Oc3ccc(Cl)cc3)cc2)c1Cl [II-19] | – | – | – | 100 | 100 | 100 | – | – | – | – | 100 | 100 | 100 | 100 | 100 | 100 | 100 | 100 | 100 | 100 | Insecticidal activity against diamond back moth (%) (Diamond back moth; 10 mg/L): 50%; Insecticidal activity against diamond back moth (%) (Diamond back moth; 100 mg/L): 100%; Insecticidal activity against diamond back moth (%) (Diamond back moth; 600 mg/L): 100%
4 | CCc1ncnc(NCCc2ccc(Oc3ccc(C(F)(F)F)cc3)cc2)c1Cl.Cl [II-19334] | 100 | – | 100 | – | 100 | 100 | 44 | 84 | 67 | 83 | 100 | 100 | 100 | 100 | 100 | 100 | 100 | 100 | 100 | 100 | pest or weed control at 100 ppm (Diamond back moth; 72 h, 100 ppm, mortality after 72 hrs, read-out: control (test results against diamond back moth)): 100%; pest or weed control at 100 ppm (armyworm; 72 h, 100 ppm, mortality after 72 h): 80 to 99%; Insecticidal activity against peach aphid (%) ([1]; 5 mg/L, contrastive test): 96%; pest or weed control at 2.5 ppm ([1]; Myzus persicae, foliar, 48 h, 2.5 ppm, death rate after 48 hrs): 80 to 99%; Insecticidal activity against carmine spider mite (% ) (carmine spider mite; 2.5 mg/L): 87%; Insecticidal activity against carmine spider mite (% ) (carmine spider mite; 5 mg/L): 100%; Insecticidal activity against carmine spider mite (% ) (carmine spider mite; 10 mg/L, contrastive test): 100%; Insecticidal activity against carmine spider mite (% ) (carmine spider mite; 100 mg/L, contrastive test): 100%; Insecticidal activity against carmine spider mite (% ) (carmine spider mite; 600 mg/L, contrastive test): 100%; control against carmine spider mite (carmine spider mite; 10 ppm, mortality after 72 hrs): 100%; pest or weed control at 2.5 ppm (carmine spider mite; Tetranychus cinnabarinus, 72 h, 2.5 ppm, mortality after 72 hrs): 80 to 99%; pest or weed control at 5 ppm (carmine spider mite; Tetranychus cinnabarinus, 72 h, 5 ppm, mortality after 72 hrs): 100%; protectant activity against wheat powdery mildew in vivo (wheat powdery mildew; 25 ppm): 100%; protectant activity against wheat powdery mildew in vivo (wheat powdery mildew; 100 ppm): 100%; pest or weed control at 1.6 µg/mL (wheat powdery mildew; Triticum aestivum, 168 h, read-out: control effect against wheat powdery mildew (%), 1.6 mg/L, protectant activity): 60%; pest or weed control at 6.25 µg/mL (wheat powdery mildew; Triticum aestivum, 168 h, read-out: control effect against wheat powdery mildew (%), 6.25 mg/L, protectant activity): 100%; pest or weed control at 25 µg/mL (wheat powdery mildew; Triticum aestivum, 168 h, read-out: control effect against wheat powdery mildew (%), 25 mg/L, protectant activity): 100%; pest or weed control at 100 µg/mL (wheat powdery mildew; Triticum aestivum, 168 h, read-out: control effect against wheat powdery mildew (%), 100 mg/L, protectant activity): 100%; pest or weed control at 6.25 ppm (wheat powdery mildew; Triticum aestivum, 168 h, read-out: protectant activity against wheat powdery mildew in vivo, 6.25 ppm): 100%
5 | Cc1ncnc(NCCc2ccc(Oc3cccc(C(F)(F)F)c3)nc2)c1Cl [III-21] | – | – | – | – | 100 | 100 | – | – | – | – | – | – | – | – | – | 100 | – | 100 | 100 | 100 | protectant activity against corn rust in vivo (corn rust; 100 ppm): 100%
